Source: patent publication US10414739B2, “Compounds as inhibitors of the YAP/TAZ-TEAD interaction and their use in the treatment of malignant mesothelioma” (INVENTIVA, priority 2015, dated 2019)

Legend:
[1] = target: T1, YAP-TEAD interaction (human YAP2-His6 (50-114) / human TEAD1-GST (209-426)) (Homo sapiens, UniProt P28347); test: YAP-TEAD AlphaLISA assay; type: binding; details: for Emax: 2 h, maximal % inhibition, read-out: Max Act.; for Emax / IC50: YAP-TEAD AlphaLISA; for IC50: 2 h equilibration at room temperature
T1 construct: GST-TEAD1 (209-426) produced in E. coli; made in house; host or cells: E. coli
Protocol: YAP-TEAD AlphaLISA Assay for IC50 Value Determination.
YAP-TEAD binding and inhibition was assessed by monitoring the engagement of YAP2 peptide (human YAP2-His6 (50-114) produced in E. coli) with TEAD (human TEAD1-GST (GST-TEAD1 (209-426) produced in E. coli) using the AlphaLisa technology (Perkin-Elmer). Specifically, in a 384 well (Axygen) 5 μl of compounds were dispensed in 100% DMSO following a semi log serial dilution, with a top concentration of […] (10 concentrations). A ‘3 partners solution’ was prepared by mixing AlphaScreen Glutathione Donor beads 15 μg/ml (PerkinElmer), Anti-6×His AlphaLisA Acceptor beads 15 μg/ml (PerkinElmer) and Human YAP2 9 nM in 100 mM NaCl, 25 mM Hepes, 0.1% BSA, 0.5% NoNidet®P40 buffer. In the 384 assay plate (Proxiplate, Perkin-Elmer)) 2 μl of compound at each concentration, 6 μl of buffer, 6 μl of hTEAD1-GST 9 nM and 6 μl of ‘3 partner solution’ were mixed. After 2 h equilibration at room temperature in the dark the plates were read on an Envision instrument (Excitation @ 680 nm/Emission @ 570 nm, Perkin Elmer).
Results were expressed as % inhibition=100×((HighControl−Cpd)/(HighControl−LowControl)), were High control is the maximum response obtained with all components and Low control is the basal response obtained with all components without GST-Tead1.
Cpd is the response obtained for test compounds.
IC50 (half maximal inhibitory concentration) was determined by fitting the concentration response curves using a 3-parameter curve fit equation and determining concentration corresponding to 50% inhibition.

SW620 cell line = test: Cell proliferation in YAP-independent cell line (EdU); type: cell-based
Protocol: The tumor cell growth inhibitory activity of the YAP-TEAD interaction inhibitors was evaluated in NCI-H2052 mesothelioma cell line harboring a NF2 mutation. This cell line was selected based on its mutational status and the ability of a siRNA directed against YAP, TAZ or TEAD1-4 to inhibit cell proliferation. The nuclear localization of YAP at confluence was also taken into account. Based on these observations we were able to classify several “YAP dependent cells” where YAP is clearly nuclear and in which a cell growth inhibition is observed by using siRNA (NCI-H2052, SKOV-3, ACHN, A549) and the “YAP independent cells” where YAP is preferentially located in the cytoplasm and in which no inhibition of cell growth is observed by using a siRNA (SW620, Met-5a). […] After one day growth in the starvation medium, cells were incubated with compounds. The starting concentration was 30 μM and serial dilutions in DMSO and medium were performed until […] to achieve a final DMSO concentration of 0.5%. The cells were then allowed to grow for 3 days, and then, EdU (Invitrogen, Molecular Probe) was added in each well at a final concentration of 10 μM and the cells were returned to the incubator for additional 24 h. Starvation medium was removed and 100 μl of PFA 4% containing Hoechst dye was adding in each well to fix the cells. Plates were then incubated at room temperature for 15 minutes, washed twice with PBS and the cells were permeabilized by adding 100 μl per well of triton-100 containing 0.3% BSA. After 20 minutes cells were washed with PBS and the EdU detection was performed according to the instructions of the manufacturer. Image acquisition was performed using the ImageXpress Micro and analysed using the MetaXpress software (Molecular Device). Results were expressed as a percent of inhibition (%) of the cell proliferation values obtained with 0.5% DMSO treatment alone. The cellular response was determined by fitting the concentration response curves using a 3 parameter curve fit equation and determining the concentration that inhibited cell growth between 50% and 100%.

[2] = test system: YAP-TEAD interaction in co-transfected HEK293 cells; test: Cell-based TEAD-GAL4 transactivation assay (luciferase reporter); details: Homo sapiens, HEK293 co-transfected with TEAD1-Gal4, YAP mutant (S127A, S397A) and reporter, 24 h
Protocol: Effect of Compounds on the Cell-Based TEAD-GAL4 Transactivation Assay
(§1) To identify inhibitors of YAP-TEAD interaction, a transient transactivation assays was carried out into HEK293 cell line (HEK293 GripTite™ 293 MSR (Invitrogen R795-07)) using plasmids containing the full length TEAD1 sequences, the full length YAP mutant (S127A, S397A) and a luciferase gene reporter. All expression constructs were performed into pSG5 backbone plasmid in which the SV40 promoter was replaced by the CMV promoter. The TEAD1 construct was prepared by cloning the full length human TEAD1 cDNA in fusion with the Gal4 DNA Binding Domain (AA 1-148) into pSG5_CMV to create the TEAD1(FL)_hum_pSG5Gal4_CMV. The full length YAP mutant (S127A, S397A) was also cloned into pSG5_CMV to create the YAP(FL)_hum_pSG5_mutS127A_S397A_CMV. The reporter plasmid GAL4(5×RE)_TK(−105/+56)_pGL3-Basic contains 5 copies of the GAL4 responsive element (5′-TCGGAGGACAGTACTCC-3′) upstream of the thymidine kinase (TK) promoter (−105/+56) inserted in a pGL3-Basic vector. To evaluate the selectivity of our compounds in blocking the YAP-TEAD interaction, a counter-screening protein-protein interaction transactivation assays was also established. Briefly, two other expression plasmids, the pBD-P53 which express the P53 (AA 72-390) in fusion with Gal4 and the pAD-SV40T which express the SV40 large T antigen (AA 84-708,AgT), were created. […] Twenty-four hours later, the luciferase activity was determined after addition of 100 μl of Steady Glo™ luciferase assay system (Promega E2550) according to the manufacturer's directions. Luciferase activity in cell extracts is measured by reading luminescence using the Envision device.
The cellular response was determined by fitting the concentration response curves using a 3-parameter curve fit equation and determining the concentration that inhibited the luciferase activity by 50%.

[3] = test system: P53 / SV40 large T antigen (AgT) interaction in HEK293 cells; test: Counter-screening protein-protein interaction transactivation assay (P53+AgT); type: cell-based; details: HEK293, same conditions as TEAD-GAL4 assay
Protocol: as §1, with “created. HEK293 cells were seeded at 5×10^4 cells/well in 96 well plates (assay plates) in DMEM medium containing 4.5 g/L D-glucose, 10% high inactivated (HI) fetal bovine serum 1% Glutamax, 1% non-essential amino acid and 1% sodium pyruvate and 0.5% penicillin/streptomycin 37° C. in a humidified atmosphere of 8% CO2.” for “created.”

[4] = test system: NCI-H2052 mesothelioma cell line; test: Inhibition of malignant mesothelioma tumor cell growth (EdU proliferation); type: cell-based; details: NCI-H2052 (NF2 mutated), 1% serum
Protocol: Inhibition of Malignant Mesothelioma Tumor Cell Growth
The tumor cell growth inhibitory activity of the YAP-TEAD interaction inhibitors was evaluated in NCI-H2052 mesothelioma cell line harboring a NF2 mutation. This cell line was selected based on its mutational status and the ability of a siRNA directed against YAP, TAZ or TEAD1-4 to inhibit cell proliferation. The nuclear localization of YAP at confluence was also taken into account. Based on these observations we were able to classify several “YAP dependent cells” where YAP is clearly nuclear and in which a cell growth inhibition is observed by using siRNA (NCI-H2052, SKOV-3, ACHN, A549) and the “YAP independent cells” where YAP is preferentially located in the cytoplasm and in which no inhibition of cell growth is observed by using a siRNA (SW620, Met-5a). […] After one day growth in the starvation medium, cells were incubated with compounds. The starting concentration was 30 μM and serial dilutions in DMSO and medium were performed until […] to achieve a final DMSO concentration of 0.5%. The cells were then allowed to grow for 3 days, and then, EdU (Invitrogen, Molecular Probe) was added in each well at a final concentration of 10 μM and the cells were returned to the incubator for additional 24 h. Starvation medium was removed and 100 μl of PFA 4% containing Hoechst dye was adding in each well to fix the cells. Plates were then incubated at room temperature for 15 minutes, washed twice with PBS and the cells were permeabilized by adding 100 μl per well of triton-100 containing 0.3% BSA. […] Image acquisition was performed using the ImageXpress Micro and analysed using the MetaXpress software (Molecular Device). Results were expressed as a percent of inhibition (%) of the cell proliferation values obtained with 0.5% DMSO treatment alone. The cellular response was determined by fitting the concentration response curves using a 3 parameter curve fit equation and determining the concentration that inhibited cell growth between 50% and 100%.

T1 sequence (P28347 209-426): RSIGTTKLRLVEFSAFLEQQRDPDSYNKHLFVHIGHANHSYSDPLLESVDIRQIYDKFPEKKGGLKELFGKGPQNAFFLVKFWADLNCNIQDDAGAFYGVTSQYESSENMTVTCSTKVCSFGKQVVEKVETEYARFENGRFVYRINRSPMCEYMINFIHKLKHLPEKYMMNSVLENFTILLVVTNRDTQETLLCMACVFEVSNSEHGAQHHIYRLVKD

Row | Emax [1] [%] | IC50 [1] [µM] | SMILES | further results
1 | 95 | 3.41 | COc1cc(/C=N/N(C)C2=NS(=O)(=O)c3c(C)cc(F)cc32)ccc1O [Example 20, 4-[(E)-[(5-fluoro-7-methyl-1,1-dioxo-1,2-benzothiazol-3-yl)-methyl-hydrazono]methyl]-2-methoxy-phenol] | melting point: > 260 °C
2 | 97 | 4.57 | COc1cc(/C=N/N(C)C2=NS(=O)(=O)c3cc(C(=O)O)ccc32)ccc1O [Example 34, 3-[[(E)-(4-hydroxy-3-methoxy-phenyl)methyleneamino]-methyl-amino]-1,1-dioxo-1,2-benzothiazole-6-carboxylic acid] | melting point: > 260 °C
3 | 77 | 0.354 | COc1ccc2c(c1)C(N(C)/N=C/c1ccc(O)c(OC)c1)=NS2(=O)=O [Example 35, 2-methoxy-4-[(E)-[(5-methoxy-1,1-dioxo-1,2-benzothiazol-3-yl)-methyl-hydrazono]methyl]phenol] | –
4 | 77 | 78 | COc1cc(/C=N/N(C2=NS(=O)(=O)c3ccccc32)C(C)C)ccc1O [Example 36, 4-[(E)-[(1,1-dioxo-1,2-benzothiazol-3-yl)-isopropyl-hydrazono]methyl]-2-methoxy-phenol] | –
5 | 74 | 70.8 | COc1cc(/C=N/N(CC(F)(F)F)C2=NS(=O)(=O)c3ccccc32)ccc1O [Example 37, 4-[(E)-[(1,1-dioxo-1,2-benzothiazol-3-yl)-(2,2,2-trifluoroethyl)-hydrazono]methyl]-2-methoxy-phenol] | –
6 | 99 | 105 | COc1cc(/C=N/N(C2=NS(=O)(=O)c3ccccc32)c2ccc(C(=O)O)cc2)ccc1O [Example 38, 4-[(1,1-dioxo-1,2-benzothiazol-3-yl)-[(E)-(4-hydroxy-3-methoxy-phenyl)methyleneamino]amino]benzoic acid] | –
7 | 61 | 62.2 | COc1cc(/C=N/N(C)C2=NS(=O)(=O)c3cc(-c4ccccc4)ccc32)ccc1O [Example 39, 4-[(E)-[(1,1-dioxo-6-phenyl-1,2-benzothiazol-3-yl)-methyl-hydrazono]-methyl]-2-methoxy-phenol] | –
8 | 91 | 16.2 | COc1ccc2c(c1)S(=O)(=O)N=C2N(C)/N=C/c1ccc(O)c(OC)c1 [Example 40, 2-methoxy-4-[(E)-[(6-methoxy-1,1-dioxo-1,2-benzothiazol-3-yl)-methyl hydrazono]methyl]phenol] | –
9 | 85 | 5.74 | COc1cc(/C=N/N(C)C2=NS(=O)(=O)c3cc(F)ccc32)ccc1O [Example 41, 4-[(E)-[(6-fluoro-1,1-dioxo-1,2-benzothiazol-3-yl)-methyl-hydrazono]-methyl]-2-methoxy-phenol] | –
10 | 84 | 2.47 | COc1cc(/C=N/N(C)C2=NS(=O)(=O)c3ccc(F)cc32)ccc1O [Example 42, 4-[(E)-[(5-fluoro-1,1-dioxo-1,2-benzothiazol-3-yl)-methyl-hydrazono]-methyl]-2-methoxy-phenol] | –
11 | – | – | COc1ccc(/C=N/N(C)C2=NS(=O)(=O)c3ccccc32)cc1OC [N-[(E)-(3,4-dimethoxyphenyl)methyleneamino]-N-methyl-1,1-dioxo-1,2-benzothiazol-3-amine, reference compound] | inhibition at 1000 µM ([1]; at 1 mM concentration): 30%

Row | SMILES | Emax [1] [%] | IC50 [1] [µM] | further results
12 | COc1cc(/C=N/N(C)C2=NS(=O)(=O)c3ccccc32)ccc1O [Example 1, 4-[(E)-[(1,1-dioxo-1,2-benzothiazol-3-yl)-methyl-hydrazono]methyl]-2-methoxy-phenol] | 92 | 0.886 | inhibition at 0.886 µM ([1]; at 0.886 μM (so in the source)): 92%; melting point: 218 °C; effect on cell proliferation (SW620 cell line): without showing any effect; inhibition at 30 µM [2]: 50 to 75%; inhibitory effect in counter screening assay (P53+AgT) [3]: no inhibitory effect was observed; inhibition of cell proliferation [4]: inhibited
13 | COc1cc(/C=N/N(CCO)C2=NS(=O)(=O)c3ccccc32)ccc1O [Example 2, 4-[(E)-[(1,1-dioxo-1,2-benzothiazol-3-yl)-(2-hydroxyethyl)-hydrazono]methyl]-2-methoxy-phenol] | 93 | 0.949 | effect on cell proliferation (SW620 cell line): without showing any effect; inhibition at 30 µM [2]: 50 to 75%; inhibitory effect in counter screening assay (P53+AgT) [3]: no inhibitory effect was observed; inhibition of cell proliferation [4]: inhibited
14 | COCCN(/N=C/c1ccc(O)c(OC)c1)C1=NS(=O)(=O)c2ccccc21 [Example 7, 4-[(E)-[(1,1-dioxo-1,2-benzothiazol-3-yl)-(2-methoxyethyl)hydrazono]-methyl]-2-methoxy-phenol] | 94 | 4.58 | effect on cell proliferation (SW620 cell line): without showing any effect; inhibition at 30 µM [2]: 50 to 75%; inhibitory effect in counter screening assay (P53+AgT) [3]: no inhibitory effect was observed; inhibition of cell proliferation [4]: inhibited
